{"source": "patent US11155582B2", "about": "“Antiviral peptide and use thereof” (priority 2018, dated 2021)", "key": {"[1]": {"tested_on": "VSV", "assay_type": "cell-based, Vesicular stomatitis virus (VSV)"}, "[2]": {"tested_on": "VSV", "assay_type": "cell-based, Vesicular stomatitis virus (VSV)", "remark": "listed apart in the source"}}, "note": "Several values for one entry are separate records, joined by “and”; a condition that tells them apart may be missing. Equal values may be shown once. Where no end group is shown, it is not given here.", "data": [{"substance": "FFFIIGLIIGLFLVLRVGIHLKKRTLRKNDRKKR-NH2 [Sample 2]", "values": [{"measurement": "Amount of virus in culture supernatant", "setting": "[1]", "value": "4.7 Log10 TCID 50/mL and 3.5 Log10 TCID 50/mL"}]}, {"substance": "MAIVGIVLLIVVTFLAIKTKKRTLRKNDRKKR-NH2 [Sample 1]", "values": [{"measurement": "Amount of virus in culture supernatant", "setting": "[1]", "value": "4.4 Log10 TCID 50/mL and 5 Log10 TCID 50/mL"}]}, {"substance": "VLAVIIGFVILMFLIKLIGVLKKRTLRKNDRKKR-NH2 [Sample 3]", "values": [{"measurement": "Amount of virus in culture supernatant", "setting": "[1]", "value": "4.7 Log10 TCID 50/mL and 4.5 Log10 TCID 50/mL"}, {"measurement": "observation field occupied by a monolayer of living cells", "setting": "[2]", "value": "≥ 90", "unit": "%"}]}]}
